Results published in patent US9642831B2, “Substituted chromanes and method of use” (AbbVie S.á.r.l., priority 2014, dated 2017).

Target: F508delCFTR (Homo sapiens, UniProt P13569, DEL508-508)
Assay: Cell Surface Expression-Horse Radish Peroxidase (CSE-HRP) assay
Assay type: cell-based
Set-up: expressed in transfected cells; host or cells: CFBE41o- human lung derived epithelial cell line, doxycycline-inducible
Details: CFBE4lo-F508delCFTR-HRP cells; for EC50: 18-24 hours at 33° C., 8-point curve, highest concentration 20 μM, luminescence readout; for Emax: maximum % activity at any tested concentration, normalized to on-plate positive control (3 μM Example 1)
Outline: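 Following 18-24 h compound exposure at 33° C. Expression was doxycycline-induced beforehand. % activity versus DMSO and a 3 μM corrector control gave maximum activity and EC50 from a variable-Hill sigmoidal fit.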

Chain of F508delCFTR (P13569 with tags, fused parts or gaps DEL508-508): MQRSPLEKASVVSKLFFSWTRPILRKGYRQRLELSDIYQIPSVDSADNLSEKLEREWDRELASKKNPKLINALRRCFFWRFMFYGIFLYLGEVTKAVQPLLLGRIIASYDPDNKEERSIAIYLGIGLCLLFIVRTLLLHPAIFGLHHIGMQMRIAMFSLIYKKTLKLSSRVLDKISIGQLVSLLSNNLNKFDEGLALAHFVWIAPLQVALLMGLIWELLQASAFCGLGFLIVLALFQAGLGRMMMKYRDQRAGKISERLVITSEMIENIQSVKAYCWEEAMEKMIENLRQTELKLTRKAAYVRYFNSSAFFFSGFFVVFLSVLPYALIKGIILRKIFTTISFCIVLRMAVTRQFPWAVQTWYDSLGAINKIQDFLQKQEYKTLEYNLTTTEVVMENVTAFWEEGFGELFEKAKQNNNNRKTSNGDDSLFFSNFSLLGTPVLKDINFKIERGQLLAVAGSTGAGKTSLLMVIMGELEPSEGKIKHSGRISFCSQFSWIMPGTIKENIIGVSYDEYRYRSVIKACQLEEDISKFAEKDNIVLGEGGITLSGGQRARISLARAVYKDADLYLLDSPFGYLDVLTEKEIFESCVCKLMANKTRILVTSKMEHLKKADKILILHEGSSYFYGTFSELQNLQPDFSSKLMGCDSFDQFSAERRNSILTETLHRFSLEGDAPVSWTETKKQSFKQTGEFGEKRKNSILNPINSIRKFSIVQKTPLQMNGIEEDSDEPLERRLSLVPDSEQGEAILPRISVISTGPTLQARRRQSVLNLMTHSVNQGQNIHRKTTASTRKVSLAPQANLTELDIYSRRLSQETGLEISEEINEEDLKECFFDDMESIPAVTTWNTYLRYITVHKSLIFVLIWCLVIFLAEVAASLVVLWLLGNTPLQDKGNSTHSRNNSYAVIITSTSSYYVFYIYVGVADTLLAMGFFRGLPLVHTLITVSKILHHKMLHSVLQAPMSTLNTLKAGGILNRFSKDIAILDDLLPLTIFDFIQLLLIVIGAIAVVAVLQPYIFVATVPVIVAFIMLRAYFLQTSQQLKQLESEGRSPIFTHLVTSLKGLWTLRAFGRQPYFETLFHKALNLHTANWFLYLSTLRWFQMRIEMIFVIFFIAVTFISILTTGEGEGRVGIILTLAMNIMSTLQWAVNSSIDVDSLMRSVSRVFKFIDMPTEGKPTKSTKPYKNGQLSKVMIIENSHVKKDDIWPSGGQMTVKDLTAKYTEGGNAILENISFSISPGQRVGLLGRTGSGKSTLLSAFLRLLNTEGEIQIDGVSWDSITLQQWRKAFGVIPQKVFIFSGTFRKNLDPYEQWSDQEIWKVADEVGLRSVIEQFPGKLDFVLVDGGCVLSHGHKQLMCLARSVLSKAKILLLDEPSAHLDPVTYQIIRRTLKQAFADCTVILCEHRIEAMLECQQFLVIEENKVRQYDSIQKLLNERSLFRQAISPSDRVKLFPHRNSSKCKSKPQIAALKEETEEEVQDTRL

Row | Compound | EC50 [nM] | Emax [%]
1 | COc1ccc2c(c1)O[C@@H](C(=O)N1CCOCC1)C[C@H]2NC(=O)C1(c2ccc3c(c2)OC(F)(F)O3)CC1 (racemic) [Example 177, rac-1-(2,2-difluoro-1,3-benzodioxol-5-yl)-N-[(2R,4R)-7-methoxy-2-(morpholin-4-ylcarbonyl)-3,4-dihydro-2H-chromen-4-yl]cyclopropanecarboxamide] | 2910 | 56
2 | C[C@]1(C(F)F)C[C@@H](NC(=O)C2(c3ccc4c(c3)OC(F)(F)O4)CC2)c2ccccc2O1 [Example 81, 1-(2,2-difluoro-1,3-benzodioxol-5-yl)-N-[(2R,4R)-2-(difluoromethyl)-2-methyl-3,4-dihydro-2H-chromen-4-yl]cyclopropanecarboxamide] | 4500 | 98
3 | COC(=O)c1cccc([C@H]2C[C@H](NC(=O)C3(c4ccc5c(c4)OC(F)(F)O5)CC3)c3cc(C)ccc3O2)c1 [Example 12, methyl 3-[(2R,4S)-4-({[1-(2,2-difluoro-1,3-benzodioxol-5-yl)cyclopropyl]carbonyl}amino)-6-methyl-3,4-dihydro-2H-chromen-2-yl]benzoate] | 5470 | 58
4 | O=C(NC1CC2(CCN(C[C@@H](O)CO)CC2)Oc2cc(F)ccc21)C1(c2ccc3c(c2)OC(F)(F)O3)CC1 (stereo partly drawn) [Example 99, 1-(2,2-difluoro-1,3-benzodioxol-5-yl)-N-{1′-[(2R)-2,3-dihydroxypropyl]-7-fluoro-3,4-dihydrospiro[chromene-2,4′-piperidin]-4-yl}cyclopropanecarboxamide] | 3890 | 56
5 | O=C(N[C@@H]1CC(CF)(CF)Oc2cc(Cl)ccc21)C1(c2ccc3c(c2)OC(F)(F)O3)CC1 [Example 87, N-[(4R)-7-chloro-2,2-bis(fluoromethyl)-3,4-dihydro-2H-chromen-4-yl]-1-(2,2-difluoro-1,3-benzodioxol-5-yl)cyclopropanecarboxamide] | 4630 | 146

Molecules with a lower EC50, results first:

Row | EC50 [nM] | Emax [%] | Compound
6 | 1900 | 84 | O=C(O)c1ccc([C@H]2C[C@H](NC(=O)C3(c4ccc5c(c4)OC(F)(F)O5)CC3)c3ccccc3O2)nc1 (racemic) [Example 153, rac-6-[(2R,4S)-4-({[1-(2,2-difluoro-1,3-benzodioxol-5-yl)cyclopropyl]carbonyl}amino)-3,4-dihydro-2H-chromen-2-yl]pyridine-3-carboxylic acid]
7 | 1820 | 78 | O=C(O)C1CCCC([C@H]2C[C@@H](NC(=O)C3(c4ccc5c(c4)OC(F)(F)O5)CC3)c3ccc(F)cc3O2)C1 (stereo partly drawn) [Example 36, 3-[(2R,4R)-4-({[1-(2,2-difluoro-1,3-benzodioxol-5-yl)cyclopropyl]carbonyl}amino)-7-fluoro-3,4-dihydro-2H-chromen-2-yl]cyclohexanecarboxylic acid]
8 | 1690 | 112 | COc1ccc2c(c1)O[C@@H](c1cccnc1)C[C@H]2NC(=O)C1(c2ccc3c(c2)OC(F)(F)O3)CC1 (racemic) [Example 57, rac-1-(2,2-difluoro-1,3-benzodioxol-5-yl)-N-[(2R,4R)-7-methoxy-2-(pyridin-3-yl)-3,4-dihydro-2H-chromen-4-yl]cyclopropanecarboxamide]
9 | 700 | 131 | COc1ccc2c(c1)OC(c1ccccc1)CC2NC(=O)C1(c2ccc3c(c2)OC(F)(F)O3)CC1 (centres unmarked) [Example 60, 1-(2,2-difluoro-1,3-benzodioxol-5-yl)-N-(7-methoxy-2-phenyl-3,4-dihydro-2H-chromen-4-yl)cyclopropanecarboxamide]
10 | 370 | 108 | CCOC(=O)c1csc([C@H]2C[C@@H](NC(=O)C3(c4ccc5c(c4)OC(F)(F)O5)CC3)c3ccc(OC)cc3O2)n1 (stereo in doubt) [Example 155, ethyl rel-2-[(2R,4R)-4-({[1-(2,2-difluoro-1,3-benzodioxol-5-yl)cyclopropyl]carbonyl}amino)-7-methoxy-3,4-dihydro-2H-chromen-2-yl]-1,3-thiazole-4-carboxylate]
